Columns and labels:
[1] = tested on: rabbit peritoneal neutrophils; test: Assay of relative migratory; format: cell-based; details: for times as active as F-Met-Leu, experiment of Fig. 1: single representative experiment (Fig. 1); for activity relative to F-Met-Leu as stated in running text: rounded in text from Table II
[2] = tested on: rabbit neutrophils; format: cell-based; details: for induction of lysozyme release at highest concentrations: at concentrations of 1 x 10-~ M or higher (so in the source)
[3] = tested on: neutrophils; details: appears competitive; cited from earlier work
[4] = tested on: rabbit neutrophils; format: cell-based; details: for beta-Glucuronidase release Relative activity ± SE: Table III, relative to F-Met-Leu = 1.0; for induction of beta-glucuronidase release at highest concentrations: at concentrations of 1 x 10-~ M or higher (so in the source)
[5] = tested on: rabbit peritoneal neutrophils; details: cited from earlier work
[6] = tested on: rabbit peritoneal neutrophils; test: Test of whether the peptides are chemotactic; format: cell-based; details: for nature of induced migration: directed as well as random locomotion

Compound: F-Met-Met-Ala
- activity relative to F-Met-Met (Discussion) ([1]; chemotactic activity): essentially the same
- activity relative to parent dipeptide F-Met-Met (Results) ([1]; chemotactic activity): same activity

Compound: F-Met-Leu
- Lysozyme release Relative activity ± SE ([2]; Table III, relative to F-Met-Leu = 1.0): 1
- effect on initial rates of erythrophagocytosis [3]: inhibit
- beta-Glucuronidase release Relative activity ± SE [4]: 1

Compound: F-Met-Leu-Glu
- times as active as F-Met-Leu, experiment of Fig. 1 [1]: 0.71

Compound: Met-Leu-Glu
- times less active than F-Met-Leu-Phe ([1]; induced migration and enzyme release): 26 million
- induction of lysozyme release at highest concentrations [2]: did not induce release
- induction of beta-glucuronidase release at highest concentrations [4]: did not induce release

Compound: F-Met-Glu
- chemotactic activity compared with F-Met-Leu [5]: distinctly less active

Compound: F-Met-Met-Met
- activity relative to parent dipeptide F-Met-Met (Results) ([1]; chemotactic activity): 120- to 150 fold
- fold more active than the corresponding unformylated peptide ([1]; chemotactic activity): approximately 20,000 fold
- measured mean distance from top of filter to front two PMNs ([6]; Table I B, above 10^-6 M, below 10^-6 M (uniform), 80 min 37C): 56 µm
- calculated distance for purely random migration (bracketed) ([6]; Table I B, above 10^-6 M, below 10^-7 M): 52 µm
- measured mean distance from top of filter to front two PMNs ([6]; Table I B, above 10^-6 M, below 10^-7 M, 80 min 37C): 48 µm
- calculated distance for purely random migration (bracketed) ([6]; Table I B, above 10^-6 M, below 10^-8 M): 52 µm
- measured mean distance from top of filter to front two PMNs ([6]; Table I B, above 10^-6 M, below 10^-8 M, 80 min 37C): 34 µm
- calculated distance for purely random migration (bracketed) ([6]; Table I B, above 10^-6 M, below 10^-9 M): 52 µm
- measured mean distance from top of filter to front two PMNs ([6]; Table I B, above 10^-6 M, below 10^-9 M, 80 min 37C): 38 µm
- calculated distance for purely random migration (bracketed) ([6]; Table I B, above 10^-7 M, below 10^-6 M): 38 µm
- measured mean distance from top of filter to front two PMNs ([6]; Table I B, above 10^-7 M, below 10^-6 M, 80 min 37C): 60 µm
- measured mean distance from top of filter to front two PMNs ([6]; Table I B, above 10^-7 M, below 10^-7 M (uniform), 80 min 37C): 34 µm
- calculated distance for purely random migration (bracketed) ([6]; Table I B, above 10^-7 M, below 10^-8 M): 34 µm
- measured mean distance from top of filter to front two PMNs ([6]; Table I B, above 10^-7 M, below 10^-8 M, 80 min 37C): 36 µm
- calculated distance for purely random migration (bracketed) ([6]; Table I B, above 10^-7 M, below 10^-9 M): 33 µm
- measured mean distance from top of filter to front two PMNs ([6]; Table I B, above 10^-7 M, below 10^-9 M, 80 min 37C): 34 µm
- calculated distance for purely random migration (bracketed) ([6]; Table I B, above 10^-8 M, below 10^-6 M): 35 µm
- measured mean distance from top of filter to front two PMNs ([6]; Table I B, above 10^-8 M, below 10^-6 M, 80 min 37C): 62 µm
- calculated distance for purely random migration (bracketed) ([6]; Table I B, above 10^-8 M, below 10^-7 M): 30 µm
- measured mean distance from top of filter to front two PMNs ([6]; Table I B, above 10^-8 M, below 10^-7 M, 80 min 37C): 47 µm
- measured mean distance from top of filter to front two PMNs ([6]; Table I B, above 10^-8 M, below 10^-8 M (uniform), 80 min 37C): 30 µm
- calculated distance for purely random migration (bracketed) ([6]; Table I B, above 10^-8 M, below 10^-9 M): 30 µm
- measured mean distance from top of filter to front two PMNs ([6]; Table I B, above 10^-8 M, below 10^-9 M, 80 min 37C): 27 µm
- calculated distance for purely random migration (bracketed) ([6]; Table I B, above 10^-9 M, below 10^-6 M): 35 µm
- measured mean distance from top of filter to front two PMNs ([6]; Table I B, above 10^-9 M, below 10^-6 M, 80 min 37C): 69 µm
- calculated distance for purely random migration (bracketed) ([6]; Table I B, above 10^-9 M, below 10^-7 M): 30 µm
- measured mean distance from top of filter to front two PMNs ([6]; Table I B, above 10^-9 M, below 10^-7 M, 80 min 37C): 57 µm
- calculated distance for purely random migration (bracketed) ([6]; Table I B, above 10^-9 M, below 10^-8 M): 27 µm
- measured mean distance from top of filter to front two PMNs ([6]; Table I B, above 10^-9 M, below 10^-8 M, 80 min 37C): 30 µm
- nature of induced migration [6]: truly chemotactic

Compound: F-Met-Phe-Leu
- fold more active than the corresponding unformylated peptide ([1]; chemotactic activity): around 3,000 fold

Compound: Met-Leu-Leu
- induction of lysozyme release at highest concentrations [2]: did not induce release
- beta-Glucuronidase release Relative activity ± SE [4]: > 0.0001
- induction of beta-glucuronidase release at highest concentrations [4]: did not induce release

Compound: F-Met-His
- chemotactic activity compared with F-Met-Leu [5]: distinctly less active

Compound: F-Met-Leu-Arg
- activity relative to F-Met-Leu as stated in running text ([1]; chemotactic activity): one-third

Compound: Met-Phe-Leu
- induction of lysozyme release at highest concentrations [2]: did not induce release
- beta-Glucuronidase release Relative activity ± SE [4]: > 0.0001
- induction of beta-glucuronidase release at highest concentrations [4]: did not induce release

Compound: Met-Leu-Phe
- times as active as F-Met-Leu, experiment of Fig. 1 [1]: 0.43

Compound: F-Met-Met-Phe
- activity relative to parent dipeptide F-Met-Met (Results) ([1]; chemotactic activity): 3,500-4,000 fold

Compound: F-Met-Leu-Leu
- activity relative to F-Met-Leu as stated in running text ([1]; chemotactic activity): 9 fold

Compound: Met-Met-Ala
- induction of lysozyme release at highest concentrations [2]: did not induce release
- beta-Glucuronidase release Relative activity ± SE [4]: > 0.0001
- induction of beta-glucuronidase release at highest concentrations [4]: did not induce release

Compound: CC(C)C[C@H](NC=O)C(=O)O [F-leucine]
- chemotactic activity ([5]; not as active as F-methionine): chemotactic

Compound: F-Met
- induction of lysozyme release at highest concentrations [2]: did not induce release
- beta-Glucuronidase release Relative activity ± SE [4]: > 0.00001
- induction of beta-glucuronidase release at highest concentrations [4]: did not induce release

Compound: F-Leu-Trp-Met-Arg
- drop in activity relative to F-Leu-Trp-Met ([1]; chemotactic activity): 40 fold

Compound: F-Met-Leu-Phe
- fold more active than the corresponding unformylated peptide ([1]; chemotactic activity): approximately 10,000 fold
- activity relative to F-Met-Leu as stated in running text ([1]; chemotactic activity): 5,000 fold
- times as active as F-Met-Leu, experiment of Fig. 1 [1]: 7,300
- measured mean distance from top of filter to front two PMNs ([6]; Table I A, uniform 1.66 x 10^-10 M above and below, 60 min 37C): 71 µm
- measured mean distance from top of filter to front two PMNs ([6]; Table I A, uniform 1.85 x 10-11 M above and below, 60 min 37C): 40 µm
- measured mean distance from top of filter to front two PMNs ([6]; Table I A, uniform 5 x 10^-10 M above and below, 60 min 37C): 73 µm
- measured mean distance from top of filter to front two PMNs ([6]; Table I A, uniform 5.55 x 10-11 M above and below, 60 min 37C): 60 µm
- nature of induced migration [6]: truly chemotactic
